One assay has as its target Cytochrome P450 3A4 (Homo sapiens, UniProt P08684).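 Also: CYP3A4 tested as one member of a cytochrome P450 panel screen.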
A further assay has as its target Cytochrome P450 2C9 (Homo sapiens, UniProt P11712).
The target of another assay is T1, Cytochrome P450 1A2 (Homo sapiens, UniProt P05177).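 Also: PubChem cytochrome P450 panel assay, CYP1A2 panel member.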
T1 sequence (P05177 whole entry): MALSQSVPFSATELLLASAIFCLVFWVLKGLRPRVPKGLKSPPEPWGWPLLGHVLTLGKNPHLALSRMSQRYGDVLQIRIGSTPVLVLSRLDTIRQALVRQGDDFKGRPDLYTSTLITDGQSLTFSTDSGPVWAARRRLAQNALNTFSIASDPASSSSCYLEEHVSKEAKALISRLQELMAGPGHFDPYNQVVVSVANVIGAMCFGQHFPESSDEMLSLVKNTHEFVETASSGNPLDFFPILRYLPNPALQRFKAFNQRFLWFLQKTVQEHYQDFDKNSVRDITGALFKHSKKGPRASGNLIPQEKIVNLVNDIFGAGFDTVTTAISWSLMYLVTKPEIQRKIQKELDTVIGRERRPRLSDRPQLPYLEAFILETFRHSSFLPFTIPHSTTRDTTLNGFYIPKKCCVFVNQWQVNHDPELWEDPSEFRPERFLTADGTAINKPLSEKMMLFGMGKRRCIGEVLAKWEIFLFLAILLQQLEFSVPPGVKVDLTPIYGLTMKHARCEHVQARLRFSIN

Assay [1] can be described thus: inhibitors of intracellular T. cruzi replication, confirmation, NIH3T3 host cells, beta-gal luminescence (AID 2044).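 Also: intracellular parasites grown in NIH/3T3 mouse fibroblasts as host cells; luminescent beta-galactosidase reporter signal from transgenic T. cruzi replicating inside host cells; inhibitors lower the luminescence signal.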 Type of assay: functional, cell-based.
The nature of assay [2]: cytotoxicity toward NIH3T3 fibroblasts, dose response, counter-screen, cell-based, ATP luminescence, mouse fibroblasts (AID 2010).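 Also: cells exposed to compound for about 90 hours before reading.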 Type of assay: functional.
The target in assay [3] is T2, Corticotropin-releasing factor receptor 2/Corticotropin-releasing factor-binding protein (Homo sapiens, UniProt P24387+Q13324).
T2 sequence (Q13324 whole entry): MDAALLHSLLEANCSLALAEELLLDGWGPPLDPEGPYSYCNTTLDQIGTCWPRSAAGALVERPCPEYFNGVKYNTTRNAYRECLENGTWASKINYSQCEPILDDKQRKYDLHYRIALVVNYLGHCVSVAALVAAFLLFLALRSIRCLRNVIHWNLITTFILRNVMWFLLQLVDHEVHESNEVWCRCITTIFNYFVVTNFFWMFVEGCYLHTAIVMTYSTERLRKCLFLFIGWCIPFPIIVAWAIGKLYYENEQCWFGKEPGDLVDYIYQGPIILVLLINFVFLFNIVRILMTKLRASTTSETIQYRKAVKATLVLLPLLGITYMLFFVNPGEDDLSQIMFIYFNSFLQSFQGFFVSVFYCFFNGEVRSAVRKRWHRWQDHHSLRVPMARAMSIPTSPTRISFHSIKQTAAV
T2 sequence (P24387 whole entry): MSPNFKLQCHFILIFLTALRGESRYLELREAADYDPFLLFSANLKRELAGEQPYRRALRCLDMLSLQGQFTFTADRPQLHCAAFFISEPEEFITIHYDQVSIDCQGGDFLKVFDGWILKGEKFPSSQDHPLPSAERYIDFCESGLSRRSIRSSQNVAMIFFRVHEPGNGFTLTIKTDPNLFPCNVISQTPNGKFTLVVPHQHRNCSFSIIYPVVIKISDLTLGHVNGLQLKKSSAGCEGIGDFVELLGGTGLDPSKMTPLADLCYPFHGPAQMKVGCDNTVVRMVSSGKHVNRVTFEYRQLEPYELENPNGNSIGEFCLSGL
As to the kind of experiment: activators of CRF receptor 2 with binding protein – uHTS hits, confirmation (AID 602473). As to conditions: read-out: EC50_Mean. In kind it is functional.

For 55 compounds, AC50 and EC50 results are on record in ChEMBL document CHEMBL1201862, “PubChem BioAssay data set” (2004).

Several values for one entry are separate records, joined by “and”; a condition that tells them apart may be missing. Identical values can stand only once. Activity calls are given as the source filed them. Bounds are passed on as bounds.

Cytochrome P450 3A4, sequence (P08684 whole entry): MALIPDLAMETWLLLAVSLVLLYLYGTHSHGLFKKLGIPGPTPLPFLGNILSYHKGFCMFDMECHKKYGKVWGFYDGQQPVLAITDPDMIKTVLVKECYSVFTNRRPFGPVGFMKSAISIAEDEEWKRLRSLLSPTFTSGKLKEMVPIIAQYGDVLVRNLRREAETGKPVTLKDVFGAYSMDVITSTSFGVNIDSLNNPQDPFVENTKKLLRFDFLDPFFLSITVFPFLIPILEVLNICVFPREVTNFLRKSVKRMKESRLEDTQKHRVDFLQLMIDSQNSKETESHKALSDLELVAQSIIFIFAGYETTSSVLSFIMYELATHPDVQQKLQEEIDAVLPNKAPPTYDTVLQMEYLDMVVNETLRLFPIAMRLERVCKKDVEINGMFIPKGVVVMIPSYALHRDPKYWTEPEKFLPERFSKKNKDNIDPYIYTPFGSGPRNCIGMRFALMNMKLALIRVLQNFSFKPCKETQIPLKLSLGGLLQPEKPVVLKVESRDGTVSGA
Cytochrome P450 2C9, sequence (P11712 whole entry): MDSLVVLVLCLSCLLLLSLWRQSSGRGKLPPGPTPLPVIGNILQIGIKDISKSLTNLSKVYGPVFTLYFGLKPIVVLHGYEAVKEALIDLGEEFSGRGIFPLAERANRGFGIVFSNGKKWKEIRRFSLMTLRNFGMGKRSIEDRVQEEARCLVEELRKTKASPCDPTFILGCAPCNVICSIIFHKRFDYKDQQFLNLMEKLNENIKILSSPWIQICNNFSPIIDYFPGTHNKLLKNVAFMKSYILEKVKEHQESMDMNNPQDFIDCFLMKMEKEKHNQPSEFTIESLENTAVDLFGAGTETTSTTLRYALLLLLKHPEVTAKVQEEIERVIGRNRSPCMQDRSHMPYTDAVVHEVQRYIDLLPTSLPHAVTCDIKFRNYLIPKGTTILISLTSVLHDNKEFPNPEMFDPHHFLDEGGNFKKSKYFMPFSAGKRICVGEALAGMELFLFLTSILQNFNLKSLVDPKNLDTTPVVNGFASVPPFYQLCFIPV

For orientation: AC50 means the midpoint of the concentration-response curve, whichever way the signal moves. On to `CS(=O)(=O)N1CC(C(=O)NC2CC2)Oc2ccc(Cl)cc21` (stereo not drawn), for which the AC50 on Cytochrome P450 3A4 is 25.1 µM (inconclusive); at Cytochrome P450 2C9, 10 µM (inconclusive).

Regarding `N[C@H](Cc1ccc(N(CCCl)CCCl)cc1)C(=O)O`, at Cytochrome P450 1A2, the AC50 is 15.8 µM (inconclusive).

Consider `CCOc1cc(-c2nc(-c3cc([N+](=O)[O-])ccc3C)c(-c3ccccc3)[nH]2)ccc1O`, for which the results for the EC50 in assay [1] and in assay [2] were 2.7 µM (active) and > 60 µM (inconclusive), respectively.

Turning to `Cc1ccc(/N=N\c2ccc(N)cc2C)c(S(N)(=O)=O)c1`, the AC50 at Cytochrome P450 3A4 was 3.98 µM (inconclusive).

As for `Cc1noc(C)c1-c1ccc2ncnc(NC3CCNCC3)c2c1`, at Cytochrome P450 1A2, the concentration at half-maximal activity (AC50) was 31.6 µM (inconclusive).

On to `Cc1ccc(/C=N\NC(=O)c2ccc(Cn3cc(Br)c([N+](=O)[O-])n3)o2)o1`, for which the EC50 in assay [1] was 0.878 µM (active); in assay [2] it was > 60 µM (not active).

In the case of `N#Cc1cc(C(=O)c2ccccc2O)cn(-c2ccc(Cl)cc2)c1=O`, the EC50 in assay [3] was > 53 µM (inactive).

In the case of `N[C@H](CCCP(=O)(O)O)C(=O)O`, on Cytochrome P450 1A2, the AC50 is 25.1 µM (inconclusive) and 31.6 µM (inconclusive).

With `N#Cc1ccc(CN2CCCC3(CCN(C(=O)Oc4ccccc4)CC3)C2)cc1`, the AC50 was 15.8 µM (inconclusive) at Cytochrome P450 3A4 and 39.8 µM (inconclusive) on Cytochrome P450 2C9.

With `O=C(Nc1ccccc1)Nc1ccccc1-n1ccnc1`, the EC50 in assay [1] is 2.53 µM (active); in assay [2] it was > 60 µM (not active).

Regarding `O=C(Nc1cccnc1Cl)C1c2ccccc2Oc2ccccc21`, the figures for the concentration at half-maximal activity (AC50) on Cytochrome P450 3A4 and at Cytochrome P450 1A2 were 14.1 µM (inconclusive) and 3.16 µM (inconclusive), respectively.

`NNS(=O)(=O)c1cc(C(=O)O)cc(C(=O)O)c1`: the AC50 at Cytochrome P450 1A2 was 0.001 µM (inconclusive).

As for `Cc1ccc2nc(NC(=O)C3CCN(S(=O)(=O)c4cc([N+](=O)[O-])ccc4Cl)CC3)sc2c1`, the EC50 is 0.528 µM (active) in assay [1] and > 60 µM (not active) in assay [2].

Turning to `CC(C(=O)Nc1ccccc1C(=O)O)n1c(C(F)(F)F)nc2ccccc21` (stereo not drawn), the EC50 in assay [1] was 9.95 µM (active); in assay [2], > 60 µM (inconclusive).

For the compound `Cc1cnc(CNc2ncncc2-c2cccc(NS(C)(=O)=O)c2)cn1`, the AC50 at Cytochrome P450 1A2 is 31.6 µM (inconclusive).

In the case of `CC1(C)CSC(NCc2ccccc2)=N1`, the EC50 in assay [3] is 2.84 µM (active).

As for `CC(C)(C)C(=O)Nc1sc2c(c1C#N)CCN(Cc1ccccc1)C2`, the EC50 in assay [3] is 10.2 µM (active).

As to `COc1ccccc1CN1CC[C@@]2(CCCN(C(=O)c3ccco3)C2)C1`, the AC50 at Cytochrome P450 1A2 was 39.8 µM (inconclusive).

As for `CC(C)(C)NS(=O)(=O)c1ccc(NS(=O)(=O)c2ccc(F)cc2)cc1`, at Cytochrome P450 3A4, the concentration at half-maximal activity (AC50) is 15.8 µM (inconclusive).

With `COc1ccc(C(=O)c2ccc(N3CCN(C(=O)c4ccc(F)cc4)CC3)c(F)c2)cc1Br`, the EC50 in assay [1] was 2.37 µM (active); in assay [2], 8.95 µM (active).

For the compound `CCc1ccc(OCCOCC(O)CNC(C)(C)C)cc1` (stereo not drawn), in assay [3], the EC50 is > 53 µM (inactive).

With `CCOC(=O)CC(NC(=O)c1ccc(C)cc1)c1ccc(C)cc1` (stereo not drawn), the AC50 at Cytochrome P450 3A4 is 25.1 µM (inconclusive).

As for `CC(C)C[C@H]1CN=C(Nc2ccccc2)N1CCc1cccc(F)c1`, the EC50 in assay [3] was 6.43 µM (active).

`Cn1ncc(C#N)c1NC(=O)C1CC(c2ccc(Cl)cc2)=NO1` (stereo not drawn): the results for the AC50 at Cytochrome P450 3A4, at Cytochrome P450 1A2 and on Cytochrome P450 2C9 were 20 µM (inconclusive), 31.6 µM (inconclusive) and 12.6 µM (inconclusive), respectively.

Regarding `CCN(CC)P(=O)(Nc1ccc(SC(F)F)cc1)c1ccc(N(C)C)cc1NC(=O)c1ccco1` (stereo not drawn), the EC50 in assay [1] is 1.99 µM (active); in assay [2] it was > 60 µM (not active).

Consider `Cc1ccccc1-c1nc(NC2CCNCC2)c2ccccc2n1`, for which the AC50 on Cytochrome P450 1A2 was 20 µM (inconclusive).

For `Cn1cnc([N+](=O)[O-])c1Sc1nc(N)nc2c1ncn2Cc1ccccc1`, the AC50 on Cytochrome P450 1A2 was 3.16 µM (inconclusive).

As to `O[C@H](CCCN1CCN(c2ncc(F)cn2)CC1)c1ccc(F)cc1`, the results for the AC50 at Cytochrome P450 1A2 and on Cytochrome P450 2C9 were 31.6 µM (inconclusive) and 12.6 µM (inconclusive), respectively.

`Cc1cccc(OCCCCCn2ccnc2)c1`: the EC50 is 0.443 µM (active) in assay [1] and > 30 µM (not active) in assay [2].

For `Cc1noc(N)c1C(=O)Nc1ccc(F)cc1`, the AC50 on Cytochrome P450 2C9 is 3.98 µM (inconclusive).

On to `C=CCSc1nnc(NC(=O)COc2ccc3ccccc3c2)s1`, for which the AC50 on Cytochrome P450 2C9 was 8.91 µM (inconclusive).

As to `CC(C)N1CCc2c(sc(NC(=O)CCc3ccccc3)c2C(N)=O)C1`, the EC50 in assay [3] was > 53 µM (inactive).

For the compound `Cc1ccc(S(=O)(=O)O[C@H]2C[C@@H](C(C)(C)C)CC[C@@H]2c2ccccc2)cc1`, at Cytochrome P450 3A4, the AC50 was 2 µM (inconclusive).

For the compound `S=C(Nc1ccc2c(c1)Cc1ccccc1-2)Nc1ccc2c(c1)Cc1ccccc1-2`, the AC50 at Cytochrome P450 3A4 was 3.98 µM (inconclusive).

On to `COc1cccc(-c2cncnc2NCCN2CCOCC2)c1`, for which the results for the concentration at half-maximal activity (AC50) at Cytochrome P450 3A4 and at Cytochrome P450 1A2 were 3.16 µM (inconclusive) and 15.8 µM (inconclusive), respectively.

As for `C=CCn1c(NCc2ccccc2)nc2ccccc21`, the concentration at half-maximal activity (AC50) on Cytochrome P450 3A4 was 25.1 µM (inconclusive).

In the case of `O=c1c(-c2ccccc2)nc2cnc(Oc3ccccc3)nc2n1Cc1cccs1`, the figures for the AC50 on Cytochrome P450 1A2 and at Cytochrome P450 2C9 were 2.51 µM (inconclusive) and 3.16 µM (inconclusive), respectively.

In the case of `COc1ccc(OC)c(Nc2nc(-c3sc(NC(=O)c4ccccc4)nc3C)cs2)c1`, the AC50 at Cytochrome P450 3A4 is 28.2 µM (inconclusive).

For the compound `CC1CC(C)CN(CCCNC(=O)C2CCCN(c3nnc(N4CCCC4=O)s3)C2)C1` (stereo not drawn), on Cytochrome P450 3A4, the AC50 is 28.2 µM (inconclusive).

In the case of `O=C(c1ccc2c(=O)n(CC3CCCO3)c(=S)[nH]c2c1)N1CCN(c2ccccc2)CC1` (stereo not drawn), the AC50 is 7.08 µM (inconclusive) at Cytochrome P450 3A4 and 7.94 µM (inconclusive) on Cytochrome P450 2C9.

For the compound `COc1ccc(C(=O)NC2CCN(C(S)=Nc3cccc(C)c3)CC2)cc1`, the AC50 at Cytochrome P450 2C9 was 25.1 µM (inconclusive).

On to `CC(C)N(CCNC(=O)c1nn(Cc2ccccc2)c(=O)c2ccccc12)C(C)C`, for which the EC50 in assay [1] was 1.46 µM (active); in assay [2], > 60 µM (not active).

As to `C/C(=N/NC(=O)c1ccc(C)s1)c1cccc(NC(=O)COc2ccc(Cl)cc2C)c1`, the AC50 on Cytochrome P450 3A4 is 1.12 µM (inconclusive).

With `CCN1CCc2c(sc(NC(=S)NC(=O)c3ccccc3)c2C#N)C1`, the AC50 is 20 µM (inconclusive) on Cytochrome P450 3A4 and 14.1 µM (inconclusive) on Cytochrome P450 1A2.

For `Cc1onc(C(=O)/C=C/N(C)C)c1C(=O)Nc1nccs1`, at Cytochrome P450 1A2, the AC50 was 0.631 µM (inconclusive).

On to `COc1ccc2c3c([nH]c2c1)C(C)=NCC3`, for which the concentration at half-maximal activity (AC50) at Cytochrome P450 3A4 is 2.51 µM (inconclusive).

`CCN(CC)c1ccc(N2C(=O)/C(=C\c3cccnc3)SC2=S)cc1`: the AC50 at Cytochrome P450 1A2 is 1.41 µM (inconclusive).

`O=C(O)CCC(=O)N1CCN(c2ccccn2)CC1`: the concentration at half-maximal activity (AC50) was 3.55 µM (inconclusive) at Cytochrome P450 3A4 and 0.891 µM (inconclusive) at Cytochrome P450 2C9.

Regarding `CCCCN1C(=O)NC(=O)/C(=C(/C)NCCCN(CC)CC)C1=O`, the EC50 in assay [1] was 1.66 µM (active); in assay [2], > 60 µM (not active).

Turning to `CC(C)CN1CCC2(CC1)CCN(C(=O)c1cc(C(F)(F)F)cc(C(F)(F)F)c1)CC2`, the concentration at half-maximal activity (AC50) at Cytochrome P450 2C9 is 12.6 µM (inconclusive).

As to `CCOC(=O)N1CCN(C(=O)CC(C(=O)N2CCc3ccccc32)n2ccnc2)CC1` (stereo not drawn), the EC50 is 1.82 µM (active) in assay [1] and > 60 µM (not active) in assay [2].

Take `O=C(NCCCN1CCc2ccccc2C1)C1CCN(S(=O)(=O)N2CCCC2)CC1`: at Cytochrome P450 3A4, the AC50 is 20 µM (inconclusive).

For `O=C(c1cc(-c2ccccc2)nc2ccccc12)N1CCC2(CC1)OCCO2`, the AC50 on Cytochrome P450 3A4 is 25.1 µM (inconclusive).

Consider `O=C1S/C(=C/c2ccc(N3CCOCC3)o2)C(=O)N1Cc1ccc(F)cc1`, for which the AC50 on Cytochrome P450 3A4 is 7.94 µM (inconclusive). Also, the EC50 in assay [3] is 5.79 µM (active).

On to `COc1ccccc1-c1cncnc1N1CCN(C)CC1`, for which the concentration at half-maximal activity (AC50) at Cytochrome P450 1A2 is 12.6 µM (inconclusive).
